Test results as given in patent publication US20070117743A1, “New antitumoral compounds” (priority 2003, published 2007).
Like-named read-outs stand apart in the source and are kept apart here. Where a SMILES comes first, the peptide text is derived from it. Bridges are numbered along the chain shown (N, C = ends). [ ]: non-standard residue; d: D form. The star is where a group is joined. d(aIle) = CC[C@H](C)[C@@H](N)C(=O)O; d(aThr) = C[C@@H](O)[C@@H](N)C(=O)O; Hexanoyl(5-Me) = CC(C)CCCC(=O)*; Orn = NCCC[C@H](N)C(=O)O; Dhb = C/C=C(\N)C(=O)O

Key:
Type in all cases: cell-based, human
K-562 = assay: SRB colorimetric assay of cell growth and viability, K-562; conditions: 48 hours exposure; for CC50: read-out: LC50 K-562
PANC-1 = assay: SRB colorimetric assay of cell growth and viability, PANC-1; conditions: 48 hours exposure; for CC50: read-out: LC50 PANC-1
HT-29 = assay: SRB colorimetric assay of cell growth and viability, HT-29; conditions: 48 hours exposure; for GI50: read-out: GI50 HT-29; for CC50: read-out: LC50 HT-29
LoVo-Dox = assay: SRB colorimetric assay of cell growth and viability, LoVo-Dox; conditions: 48 hours exposure; for CC50: read-out: LC50 LOVO-DOX
Outline: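 Absorbance at 490 nm of Tris-solubilized sulforhodamine B gives the read-out after cells are fixed with cold 50% TCA for 60 min at 4° C. Compound exposure lasts 48 hours over 10 to 10^−8 μg/mL. Growth inhibition, total growth inhibition and lethal concentration are calculated from triplicate wells.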

DU-145 = assay: SRB colorimetric assay of cell growth and viability, DU-145; conditions: 48 hours exposure
LoVo = assay: SRB colorimetric assay of cell growth and viability, LoVo; conditions: 48 hours exposure; for CC50: read-out: LC50 LOVO
SK-BR-3 = assay: SRB colorimetric assay of cell growth and viability, SK-BR-3; conditions: 48 hours exposure
IGROV-1 = assay: SRB colorimetric assay of cell growth and viability, IGROV-1; conditions: 48 hours exposure
A-549 = assay: SRB colorimetric assay of cell growth and viability, A-549; conditions: 48 hours exposure; for GI50: read-out: GI50 A-549; for CC50: read-out: LC50 A-549
HeLa = assay: SRB colorimetric assay of cell growth and viability, HeLa; conditions: 48 hours exposure; for CC50: read-out: LC50 HELA
HeLa-APL = assay: SRB colorimetric assay of cell growth and viability, HeLa-APL; conditions: 48 hours exposure; for CC50: read-out: LC50 HELA-APL
IGROV-ET = assay: SRB colorimetric assay of cell growth and viability, IGROV-ET; conditions: 48 hours exposure; for CC50: read-out: LC50 IGROV-ET
LNCaP = assay: SRB colorimetric assay of cell growth and viability, LNCaP; conditions: 48 hours exposure; for GI50: read-out: GI50 LN-caP; for CC50: read-out: LC50 LN-caP
SK-MEL-28 = assay: SRB colorimetric assay of cell growth and viability, SK-MEL-28; conditions: 48 hours exposure; for CC50: read-out: LC50 MEL-28

C/C=C1\NC(=O)[C@H](Cc2c[nH]c3ccccc23)NC(=O)[C@@H](C(C)C)NC(=O)[C@@H]([C@@H](C)CC)NC(=O)[C@H](NC(=O)[C@H](NC(=O)[C@H](CCCN)NC(=O)[C@H]2CCCN2C(=O)[C@H](NC(=O)[C@@H](NC(=O)[C@@H](NC(=O)[C@H](NC(=O)CCCC(C)C)C(C)C)[C@@H](C)O)C(C)C)C(C)C)[C@@H](C)CC)[C@@H](C)OC(=O)[C@H](C(C)C)NC1=O [Compound 68, [Trp^3]-KF] ({Hexanoyl(5-Me)}-[dV]TV[dV][dP][Orn][d(aIle)][d(aThr)][d(aIle)][dV]W[Dhb]V; ester 8-C)
GI50 (K-562; SRB): 3700 nM
TGI K-562 (K-562; SRB): 6.59E−06 Molar
CC50 (K-562; SRB): 6590 nM
GI50 (PANC-1; SRB): 6590 nM
TGI PANC-1 (PANC-1; SRB): 6.59E−06 Molar
CC50 (PANC-1; SRB): 6590 nM
TGI HT-29 (HT-29; SRB): 1.40E−06 Molar
GI50 (HT-29; SRB): 512 nM
CC50 (HT-29; SRB): 3660 nM
GI50 (LoVo-Dox; SRB): 281 nM
TGI LOVO-DOX (LoVo-Dox; SRB): 6.47E−07 Molar
CC50 (LoVo-Dox; SRB): 2530 nM
GI50 (DU-145; SRB): 470 nM
LC50 (concentration causing 50% net cell kill) (DU-145; SRB): 2850 nM
TGI DU-145 (DU-145; SRB): 1.21E−06 Molar
GI50 (LoVo; SRB): 337 nM
TGI LOVO (LoVo; SRB): 9.49E−07 Molar
CC50 (LoVo; SRB): 2620 nM
GI50 (SK-BR-3; SRB): 150 nM
LC50 (SK-BR-3; SRB): 655 nM
TGI SK-BR-3 (SK-BR-3; SRB): 3.13E−07 Molar
GI50 (IGROV-1; SRB): 87 nM
LC50 (concentration causing 50% net cell killing) (IGROV-1; SRB): 453 nM
TGI IGROV (IGROV-1; SRB): 1.98E−07 Molar
TGI A-549 (A-549; SRB): 2.83E−06 Molar
GI50 (A-549; SRB): 1560 nM
CC50 (A-549; SRB): 5120 nM
GI50 (HeLa; SRB): 1030 nM
TGI HELA (HeLa; SRB): 2.05E−06 Molar
CC50 (HeLa; SRB): 4040 nM
GI50 (HeLa-APL; SRB): 943 nM
TGI HELA-APL (HeLa-APL; SRB): 1.90E−06 Molar
CC50 (HeLa-APL; SRB): 3820 nM
GI50 (IGROV-ET; SRB): 150 nM
TGI IGROV-ET (IGROV-ET; SRB): 2.73E−07 Molar
CC50 (IGROV-ET; SRB): 499 nM
TGI LN-caP (LNCaP; SRB): 2.36E−06 Molar
GI50 (LNCaP; SRB): 1050 nM
CC50 (LNCaP; SRB): 5290 nM
GI50 (SK-MEL-28; SRB): 1250 nM
TGI MEL-28 (SK-MEL-28; SRB): 2.17E−06 Molar
CC50 (SK-MEL-28; SRB): 3770 nM

C/C=C1\NC(=O)[C@H](Cc2ccccc2)NC(=O)[C@@H](C(C)C)NC(=O)[C@@H]([C@@H](C)CC)NC(=O)[C@H](NC(=O)[C@H](NC(=O)[C@H](CCCN)NC(=O)[C@H]2CCCN2C(=O)[C@H](NC(=O)[C@@H](NC(=O)[C@@H](NC(=O)[C@H](NC(=O)CCCC(C)C)C(C)C)C(C)C)C(C)C)C(C)C)[C@@H](C)CC)[C@@H](C)OC(=O)[C@H](C(C)C)NC1=O [Compound 6, [Val^12]-KF] ({Hexanoyl(5-Me)}-[dV]VV[dV][dP][Orn][d(aIle)][d(aThr)][d(aIle)][dV]F[Dhb]V; ester 8-C)
GI50 (K-562): 661 nM
TGI K-562 (K-562): 1.44E−06 Molar
CC50 (K-562): 3070 nM
GI50 (PANC-1): 1020 nM
TGI PANC-1 (PANC-1): 1.96E−06 Molar
CC50 (PANC-1): 3800 nM
TGI HT-29 (HT-29): 2.68E−07 Molar
GI50 (HT-29): 148 nM
CC50 (HT-29): 485 nM
GI50 (LoVo-Dox): 159 nM
TGI LOVO-DOX (LoVo-Dox): 2.83E−07 Molar
CC50 (LoVo-Dox): 503 nM
GI50 (DU-145): 165 nM
LC50 (concentration causing 50% net cell kill) (DU-145): 523 nM
TGI DU-145 (DU-145): 2.94E−07 Molar
GI50 (LoVo): 133 nM
TGI LOVO (LoVo): 2.48E−07 Molar
CC50 (LoVo): 463 nM
GI50 (SK-BR-3): 102 nM
LC50 (SK-BR-3): 482 nM
TGI SK-BR-3 (SK-BR-3): 2.22E−07 Molar
GI50 (IGROV-1): 150 nM
LC50 (concentration causing 50% net cell killing) (IGROV-1): 598 nM
TGI IGROV (IGROV-1): 2.99E−07 Molar
TGI A-549 (A-549): 8.54E−07 Molar
GI50 (A-549): 257 nM
CC50 (A-549): 2360 nM
GI50 (HeLa): 144 nM
TGI HELA (HeLa): 2.63E−07 Molar
CC50 (HeLa): 480 nM
GI50 (HeLa-APL): 379 nM
TGI HELA-APL (HeLa-APL): 1.04E−06 Molar
CC50 (HeLa-APL): 3110 nM
GI50 (IGROV-ET): 154 nM
TGI IGROV-ET (IGROV-ET): 2.91E−07 Molar
CC50 (IGROV-ET): 549 nM
TGI LN-caP (LNCaP): 1.00E−06 Molar
GI50 (LNCaP): 313 nM
CC50 (LNCaP): 2780 nM
GI50 (SK-MEL-28): 175 nM
TGI MEL-28 (SK-MEL-28): 2.94E−07 Molar
CC50 (SK-MEL-28): 492 nM

C/C=C1\NC(=O)[C@H](Cc2ccccc2)NC(=O)[C@@H](C(C)C)NC(=O)[C@@H]([C@@H](C)CC)NC(=O)[C@H](NC(=O)[C@H](NC(=O)[C@H](CCCN)NC(=O)[C@H]2CCCN2C(=O)[C@H](NC(=O)[C@@H](NC(=O)[C@@H](NC(=O)[C@@H](C(C)C)N(CCCCCCC)CCCCCCC)[C@@H](C)O)C(C)C)C(C)C)[C@@H](C)CC)[C@@H](C)OC(=O)[C@H](C(C)C)NC1=O [Compound 98, [no5-MeHex^14-N-(Hep)2-D-Val^13]-Kahalalide F]
TGI K-562 (K-562; K-562): 6.40E−06 Molar
TGI PANC-1 (PANC-1; PANC-1): 6.40E−06 Molar
TGI HT-29 (HT-29; HT-29): 6.40E−06 Molar
TGI LOVO-DOX (LoVo-Dox; LOVO-DOX): 6.40E−06 Molar
TGI DU-145 (DU-145; SRB): 6.40E−06 Molar
TGI LOVO (LoVo; LOVO): 6.40E−06 Molar
TGI SK-BR-3 (SK-BR-3; SRB): 6.40E−06 Molar
TGI IGROV (IGROV-1; SRB): 6.40E−06 Molar
TGI A-549 (A-549; A-549): 6.40E−06 Molar
TGI HELA (HeLa; HELA): 2.43E−06 Molar
TGI HELA-APL (HeLa-APL; HELA-APL): 3.46E−06 Molar
TGI IGROV-ET (IGROV-ET; SRB): 6.40E−06 Molar
TGI LN-caP (LNCaP; SRB): 6.40E−06 Molar
TGI MEL-28 (SK-MEL-28; SRB): 6.40E−06 Molar
